Reference: patent US20190086432A1, “SYSTEMS AND METHODS RELATED TO HUMAN NON-INVASIVE DRUG TESTING” (priority 2017, published 2019)

Legend:
physchem = settings: pH 9.5, aqueous buffer
[1] = people driving; similar to 0.08 breath alcohol; cited from earlier work
[2] = sustained abstinence in chronic frequent smokers; cited from earlier work

## COc1cc(NS(C)(=O)=O)ccc1N [OX0245]
physchem
  solubility: ≥ 1000 µg/mL

## CCCCCc1cc(O)c2c(c1)OC(C)(C)[C@@H]1CCC(C)=C[C@@H]21 [THC, Δ-9-tetrahydrocannabinol]
[1]
  blood concentration showing increased weaving within the lane: 13.1 µg/L
[2]
  time residual THC can be detected in blood: up to a month
